# Measurements: article PMC4172859, “Positive Darwinian selection is a driving force for the diversification of terpenoid biosynthesis in the genus Oryza” (BMC Plant Biology, 2014)
# Columns and labels:
# Assay in all cases: SPME GC-MS product analysis, recombinant E. coli extract
# Format in all cases: biochemical
# Details in all cases: 10 uM FPP, 10 mM MgCl2, pH 7.0, 30 °C; mere turnover
# [1] = molecular target: T1, ObTPS1 (Oryza barthii, UniProt A0A0D3GW75)
# T1 construct: full-length cDNA in pEXP5-CT/TOPO, E. coli BL21 Codon Plus, desalted extract
# T1 sequence (A0A0D3GW75 1-575): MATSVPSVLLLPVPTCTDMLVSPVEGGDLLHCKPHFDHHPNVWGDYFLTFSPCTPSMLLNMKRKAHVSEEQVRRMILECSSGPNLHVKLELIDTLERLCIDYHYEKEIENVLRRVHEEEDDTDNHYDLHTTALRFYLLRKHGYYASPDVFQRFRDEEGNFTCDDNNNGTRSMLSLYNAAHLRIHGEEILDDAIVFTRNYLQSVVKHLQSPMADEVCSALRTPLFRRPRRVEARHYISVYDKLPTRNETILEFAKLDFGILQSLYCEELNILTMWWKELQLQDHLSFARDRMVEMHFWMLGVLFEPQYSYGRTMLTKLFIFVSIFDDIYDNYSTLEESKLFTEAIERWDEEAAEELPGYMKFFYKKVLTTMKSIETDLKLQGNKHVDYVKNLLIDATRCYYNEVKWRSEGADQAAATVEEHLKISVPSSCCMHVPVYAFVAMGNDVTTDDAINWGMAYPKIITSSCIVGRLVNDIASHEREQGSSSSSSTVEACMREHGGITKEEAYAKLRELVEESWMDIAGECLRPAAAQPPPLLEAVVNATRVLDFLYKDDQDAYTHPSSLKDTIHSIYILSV
# [2] = molecular target: T2, OryzaTPS1 (O. glaberrima) (Oryza glaberrima, UniProt I1QFJ1)
# T2 construct: gene LOC127781497; full-length cDNA in pEXP5-CT/TOPO, E. coli BL21 Codon Plus, desalted extract
# T2 sequence (I1QFJ1 1-575): T1 sequence (A0A0D3GW75 1-575)
# [3] = molecular target: T3, ObTPS1 (Oryza barthii, UniProt A0A0D3GW75, F318L/C429G/V433I)
# T3 construct: full-length cDNA in pEXP5-CT/TOPO, E. coli BL21 Codon Plus, desalted extract
# T3 sequence (A0A0D3GW75 entry or part of it F318L/C429G/V433I): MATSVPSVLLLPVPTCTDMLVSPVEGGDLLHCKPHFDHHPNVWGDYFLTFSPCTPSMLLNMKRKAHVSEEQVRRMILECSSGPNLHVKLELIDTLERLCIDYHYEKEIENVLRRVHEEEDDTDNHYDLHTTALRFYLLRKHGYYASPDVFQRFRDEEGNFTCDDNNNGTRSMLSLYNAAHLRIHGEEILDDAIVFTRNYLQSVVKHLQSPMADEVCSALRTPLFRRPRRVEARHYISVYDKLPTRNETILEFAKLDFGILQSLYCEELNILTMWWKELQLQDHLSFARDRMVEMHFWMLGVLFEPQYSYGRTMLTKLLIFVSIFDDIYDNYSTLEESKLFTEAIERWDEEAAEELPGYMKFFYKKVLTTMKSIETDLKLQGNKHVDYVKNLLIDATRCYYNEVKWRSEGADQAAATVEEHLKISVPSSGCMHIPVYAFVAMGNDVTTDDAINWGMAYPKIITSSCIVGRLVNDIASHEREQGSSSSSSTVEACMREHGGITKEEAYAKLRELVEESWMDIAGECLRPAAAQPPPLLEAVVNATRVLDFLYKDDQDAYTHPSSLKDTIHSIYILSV
# [4] = molecular target: T4, OryzaTPS1 (O. nivara) (Oryza nivara, UniProt A0A076L4Z9)
# T4 construct: full-length cDNA in pEXP5-CT/TOPO, E. coli BL21 Codon Plus, desalted extract
# T4 sequence (A0A076L4Z9 1-575): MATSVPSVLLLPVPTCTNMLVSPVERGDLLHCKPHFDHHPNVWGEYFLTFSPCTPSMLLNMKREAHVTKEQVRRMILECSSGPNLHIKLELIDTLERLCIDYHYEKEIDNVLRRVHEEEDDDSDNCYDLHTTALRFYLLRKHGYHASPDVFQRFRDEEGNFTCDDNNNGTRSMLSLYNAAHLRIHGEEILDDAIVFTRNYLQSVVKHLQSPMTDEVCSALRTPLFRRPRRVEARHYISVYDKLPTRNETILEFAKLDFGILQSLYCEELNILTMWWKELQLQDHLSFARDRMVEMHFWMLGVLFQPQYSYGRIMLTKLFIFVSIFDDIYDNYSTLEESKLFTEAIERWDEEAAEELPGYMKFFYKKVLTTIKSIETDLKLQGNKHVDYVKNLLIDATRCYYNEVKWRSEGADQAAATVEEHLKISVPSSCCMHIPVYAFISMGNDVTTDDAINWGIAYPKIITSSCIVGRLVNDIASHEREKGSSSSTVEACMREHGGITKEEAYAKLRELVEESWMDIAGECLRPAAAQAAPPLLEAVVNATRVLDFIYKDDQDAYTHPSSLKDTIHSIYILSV
# [5] = molecular target: T5, OryzaTPS1 (O. glumaepatula) (Oryza glumipatula, UniProt A0A076L503)
# T5 construct: full-length cDNA in pEXP5-CT/TOPO, E. coli BL21 Codon Plus, desalted extract
# T5 sequence (A0A076L503 1-574): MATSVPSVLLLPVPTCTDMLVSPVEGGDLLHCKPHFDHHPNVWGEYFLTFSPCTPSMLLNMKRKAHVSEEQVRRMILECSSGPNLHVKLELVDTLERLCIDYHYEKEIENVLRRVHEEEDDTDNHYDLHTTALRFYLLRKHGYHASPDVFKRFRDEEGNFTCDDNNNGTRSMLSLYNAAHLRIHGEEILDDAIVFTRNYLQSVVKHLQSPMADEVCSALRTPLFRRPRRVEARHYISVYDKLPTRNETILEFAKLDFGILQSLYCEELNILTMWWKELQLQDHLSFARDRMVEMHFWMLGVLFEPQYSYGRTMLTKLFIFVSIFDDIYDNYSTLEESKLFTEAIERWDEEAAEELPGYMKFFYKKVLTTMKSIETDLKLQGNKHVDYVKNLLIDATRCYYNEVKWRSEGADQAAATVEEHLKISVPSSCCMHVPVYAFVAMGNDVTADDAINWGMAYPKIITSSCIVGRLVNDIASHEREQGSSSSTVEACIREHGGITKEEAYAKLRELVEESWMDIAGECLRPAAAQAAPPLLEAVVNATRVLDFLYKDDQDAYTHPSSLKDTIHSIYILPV
compound,measurement,setting,value
"CC(C)=CCC/C(C)=C/CC/C(C)=C/COP(=O)(O)OP(=O)(O)O [(E, E)-farnesyl diphosphate]","SPME GC-MS product analysis, recombinant E. coli extract",[1],"The enzymes were expressed in E. coli, extracted, and incubated with the substrate (E, E)-farnesyl diphosphate"
same,"SPME GC-MS product analysis, recombinant E. coli extract",[2],All these proteins were biochemically active
same,"SPME GC-MS product analysis, recombinant E. coli extract",[3],"The triple mutant ObTPS1-F318L + C429G + V433I produced comparable amounts of germacrene A, germacrene D"
same,"SPME GC-MS product analysis, recombinant E. coli extract",[4],All these proteins were biochemically active
same,"SPME GC-MS product analysis, recombinant E. coli extract",[5],All these proteins were biochemically active
